Test results taken from patent publication US12098144B2, “Piperazine indazole glucocorticoid receptor antagonists” (Corcept Therapeutics Incorporated, priority 2021, dated 2024).

Target: T1, glucocorticoid receptor (Homo sapiens, UniProt P04150)
T1 construct: endogenous in cells; ATCC cat
T1 sequence (P04150 1-777): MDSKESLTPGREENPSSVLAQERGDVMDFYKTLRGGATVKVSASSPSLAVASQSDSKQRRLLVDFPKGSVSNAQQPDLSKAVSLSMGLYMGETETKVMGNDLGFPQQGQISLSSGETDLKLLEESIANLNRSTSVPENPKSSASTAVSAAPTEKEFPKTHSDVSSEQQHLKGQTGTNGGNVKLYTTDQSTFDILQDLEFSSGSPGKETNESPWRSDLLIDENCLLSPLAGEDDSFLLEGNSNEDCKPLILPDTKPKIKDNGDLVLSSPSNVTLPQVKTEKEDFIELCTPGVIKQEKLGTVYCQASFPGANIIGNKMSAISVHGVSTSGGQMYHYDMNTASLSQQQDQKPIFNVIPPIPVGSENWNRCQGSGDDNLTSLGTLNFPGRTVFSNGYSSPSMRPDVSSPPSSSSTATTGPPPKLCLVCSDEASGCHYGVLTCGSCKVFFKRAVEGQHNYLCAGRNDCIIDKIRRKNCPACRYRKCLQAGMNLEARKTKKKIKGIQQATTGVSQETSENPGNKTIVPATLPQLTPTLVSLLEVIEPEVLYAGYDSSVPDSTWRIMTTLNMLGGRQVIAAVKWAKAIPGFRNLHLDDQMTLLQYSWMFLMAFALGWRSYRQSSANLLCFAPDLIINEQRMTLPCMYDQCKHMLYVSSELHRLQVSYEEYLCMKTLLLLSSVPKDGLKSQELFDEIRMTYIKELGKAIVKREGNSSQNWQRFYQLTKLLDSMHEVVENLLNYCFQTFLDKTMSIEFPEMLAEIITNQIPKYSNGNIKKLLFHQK
Test: Hep G2 TAT Ki: inhibition of dexamethasone-induced TAT in HepG2 cells (96 well)
Assay type: cell-based
Conditions: challenge of 100 nM dexamethasone, IC50 converted to Ki by Cheng and Prusoff equation
Protocol: Glucocorticoid mediated activation of TAT occurs by transactivation of glucocorticoid response elements in the TAT promoter by glucocorticoid receptor-agonist complex.
HepG2 cells were cultured using MEME media supplemented with 10% (v/v) foetal bovine serum; 2 mM L-glutamine and 1% (v/v) NEAA at 37° C., 5%/95% (v/v) CO2/air.
Compounds were serially half log diluted in 100% (v/v) dimethylsulphoxide from a 10 mM stock.
HepG2 cells were then lysed with 30 μl of cell lysis buffer containing a protease inhibitor cocktail for 15 minutes at 4° C. […] After 2 hours incubation at 37° C. the reaction was terminated by the addition of 15 μl of 10M aqueous potassium hydroxide solution, and the plates incubated for a further 30 minutes at 37° C.
[compound] and fitting the data to a 4 parameter logistic equation.

SMILES	Ki [nM]
Cc1cc2c(cnn2-c2ccc(F)cc2)cc1C1CN(S(=O)(=O)c2cnn(C)n2)CCN1CC1(F)CC1 (single isomer, unassigned) [Example 73, 5-(1-((1-fluorocyclopropyl)methyl)-4-((2-methyl-2H-1,2,3-triazol-4-yl)sulfonyl)piperazin-2-yl)-1-(4-fluorophenyl)-6-methyl-1H-indazole]	170
Cc1cc2c(cnn2-c2ccc(F)cc2)cc1C1CN(S(=O)(=O)c2cnn(C)n2)CCN1CC1CCC1 (single isomer, unassigned) [Example 74, 5-(1-(cyclobutylmethyl)-4-((2-methyl-2H-1,2,3-triazol-4-yl)sulfonyl)piperazin-2-yl)-1-(4-fluorophenyl)-6-methyl-1H-indazole]	160
Cc1cc2c(cnn2-c2ccc(F)cc2)cc1C1CN(S(=O)(=O)c2cnn(C)n2)CCN1CC1CC(F)(F)C1 (single isomer, unassigned) [Example 75, 5-(1-((3,3-difluorocyclobutyl)methyl)-4-((2-methyl-2H-1,2,3-triazol-4-yl)sulfonyl)piperazin-2-yl)-1-(4-fluorophenyl)-6-methyl-1H-indazole]	140
Cc1cc2c(cnn2-c2ccc(F)cc2)cc1C1CN(S(=O)(=O)c2cnn(C)n2)CCN1Cc1ccn(C)n1 (single isomer, unassigned) [Example 80, 1-(4-fluorophenyl)-6-methyl-5-(1-((1-methyl-1H-pyrazol-3-yl)methyl)-4-((2-methyl-2H-1,2,3-triazol-4-yl)sulfonyl)piperazin-2-yl)-1H-indazole]	150
Cc1cc2c(cnn2-c2ccc(F)cc2)cc1C1CN(S(=O)(=O)c2cnn(C)n2)CCN1Cc1ccon1 (single isomer, unassigned) [Example 81, 3-((2-(1-(4-fluorophenyl)-6-methyl-1H-indazol-5-yl)-4-((2-methyl-2H-1,2,3-triazol-4-yl)sulfonyl)piperazin-1-yl)methyl)isoxazole]	73
Cc1cc2c(cnn2-c2ccc(F)cc2)cc1C1CN(S(=O)(=O)c2cnn(C)n2)CCN1CC(C)(C)CO (single isomer, unassigned) [Example 82, 3-(2-(1-(4-fluorophenyl)-6-methyl-1H-indazol-5-yl)-4-((2-methyl-2H-1,2,3-triazol-4-yl)sulfonyl)piperazin-1-yl)-2,2-dimethylpropan-1-ol]	43
Cc1cc2c(cnn2-c2ccc(F)cc2)cc1C1CN(S(=O)(=O)c2ncn(C)n2)CCN1CC(C)C (single isomer, unassigned) [Example 92, 1-(4-fluorophenyl)-5-(1-isobutyl-4-((1-methyl-1H-1,2,4-triazol-3-yl)sulfonyl)piperazin-2-yl)-6-methyl-1H-indazole]	86
Cc1cc2c(cnn2-c2ccc(F)cc2)cc1C1CN(S(=O)(=O)c2nn(C)nc2C)CCN1CC(C)C (single isomer, unassigned) [Example 93, 5-(4-((2,5-dimethyl-2H-1,2,3-triazol-4-yl)sulfonyl)-1-isobutylpiperazin-2-yl)-1-(4-fluorophenyl)-6-methyl-1H-indazole]	36
Cc1cc2c(cnn2-c2ccc(F)cc2)cc1C1CN(S(=O)(=O)c2nncn2C)CCN1CC(C)C (single isomer, unassigned) [Example 94, 1-(4-fluorophenyl)-5-(1-isobutyl-4-((4-methyl-4H-1,2,4-triazol-3-yl)sulfonyl)piperazin-2-yl)-6-methyl-1H-indazole]	74
Cc1cc2c(cnn2-c2ccc(F)cc2)cc1C1CN(S(=O)(=O)c2cnn(CC(F)(F)F)n2)CCN1CC(C)C (single isomer, unassigned) [Example 95, 1-(4-fluorophenyl)-5-(1-isobutyl-4-((2-(2,2,2-trifluoroethyl)-2H-1,2,3-triazol-4-yl)sulfonyl)piperazin-2-yl)-6-methyl-1H-indazole]	100
Cc1cc2c(cnn2-c2ccc(F)cc2)cc1C1CN(S(=O)(=O)c2cn(CC(F)F)nc2C)CCN1CC(C)C (single isomer, unassigned) [Example 96, 5-(4-((1-(2,2-difluoroethyl)-3-methyl-1H-pyrazol-4-yl)sulfonyl)-1-isobutylpiperazin-2-yl)-1-(4-fluorophenyl)-6-methyl-1H-indazole]	43
Cc1cc2c(cnn2-c2ccc(F)cc2)cc1C1CN(S(=O)(=O)c2c(C)nnn2C)CCN1CC(C)C (single isomer, unassigned) [Example 100, 5-(4-((1,4-dimethyl-1H-1,2,3-triazol-5-yl)sulfonyl)-1-isobutylpiperazin-2-yl)-1-(4-fluorophenyl)-6-methyl-1H-indazole]	42

Now those with a lower Ki, led by results:

Ki [nM]	SMILES
22	Cc1cc2c(cnn2-c2ccc(F)cc2)cc1C1CN(S(=O)(=O)c2cnn(C)n2)CCN1CC1CC(F)(F)C1 (single isomer, unassigned) [Example 76, 5-(1-((3,3-difluorocyclobutyl)methyl)-4-((2-methyl-2H-1,2,3-triazol-4-yl)sulfonyl)piperazin-2-yl)-1-(4-fluorophenyl)-6-methyl-1H-indazole]
13	Cc1cc2c(cnn2-c2ccc(F)cc2)cc1C1CN(S(=O)(=O)c2cnn(C)n2)CCN1CC1CCC1 (single isomer, unassigned) [Example 77, 5-(1-(cyclobutylmethyl)-4-((2-methyl-2H-1,2,3-triazol-4-yl)sulfonyl)piperazin-2-yl)-1-(4-fluorophenyl)-6-methyl-1H-indazole]
13	Cc1cc2c(cnn2-c2ccc(F)cc2)cc1C1CN(S(=O)(=O)c2cnn(C)n2)CCN1CC1CCCC1 (single isomer, unassigned) [Example 78, 5-(1-(cyclopentylmethyl)-4-((2-methyl-2H-1,2,3-triazol-4-yl)sulfonyl)piperazin-2-yl)-1-(4-fluorophenyl)-6-methyl-1H-indazole]
29	Cc1cc2c(cnn2-c2ccc(F)cc2)cc1C1CN(S(=O)(=O)c2cnn(C)n2)CCN1CC1(F)CC1 (single isomer, unassigned) [Example 79, 5-(1-((1-fluorocyclopropyl)methyl)-4-((2-methyl-2H-1,2,3-triazol-4-yl)sulfonyl)piperazin-2-yl)-1-(4-fluorophenyl)-6-methyl-1H-indazole]
33	Cc1cc2c(cnn2-c2ccc(F)cc2)cc1C1CN(S(=O)(=O)c2cnn(C)n2)CCN1CC1(C(F)(F)F)CC1 (single isomer, unassigned) [Example 83, 1-(4-fluorophenyl)-6-methyl-5-(4-((2-methyl-2H-1,2,3-triazol-4-yl)sulfonyl)-1-((1-(trifluoromethyl)cyclopropyl)methyl)piperazin-2-yl)-1H-indazole]
29	Cc1cc2c(cnn2-c2ccc(F)cc2)cc1C1CN(S(=O)(=O)c2cnn(C)n2)CCN1CC1CCOC1 (single isomer, unassigned) [Example 85, 1-(4-fluorophenyl)-6-methyl-5-(4-((2-methyl-2H-1,2,3-triazol-4-yl)sulfonyl)-1-((tetrahydrofuran-3-yl)methyl)piperazin-2-yl)-1H-indazole]
23	Cc1cc2c(cnn2-c2ccc(F)cc2)cc1C1CN(S(=O)(=O)c2cccnc2)CCN1CC(C)C (single isomer, unassigned) [Example 97, 1-(4-fluorophenyl)-5-(1-isobutyl-4-(pyridin-3-ylsulfonyl)piperazin-2-yl)-6-methyl-1H-indazole]
25	Cc1cc2c(cnn2-c2ccc(F)cc2)cc1C1CN(S(=O)(=O)c2ccc(C#N)cc2)CCN1CC(C)C (single isomer, unassigned) [Example 98, 4-((3-(1-(4-fluorophenyl)-6-methyl-1H-indazol-5-yl)-4-isobutylpiperazin-1-yl)sulfonyl)benzonitrile]
19	Cc1nc(S(=O)(=O)N2CCN(CC(C)C)C(c3cc4cnn(-c5ccc(F)cc5)c4cc3C)C2)cs1 (single isomer, unassigned) [Example 99, 4-((3-(1-(4-fluorophenyl)-6-methyl-1H-indazol-5-yl)-4-isobutylpiperazin-1-yl)sulfonyl)-2-methylthiazole]
28	Cc1cc2c(cnn2-c2ccc(F)cc2)cc1C1CN(S(=O)(=O)c2cn(C)nn2)CCN1CC(C)C (single isomer, unassigned) [Example 101, 1-(4-fluorophenyl)-5-(1-isobutyl-4-((1-methyl-1H-1,2,3-triazol-4-yl)sulfonyl)piperazin-2-yl)-6-methyl-1H-indazole]
